In patent US7718688B2, “Nitrobenzindoles and their use in cancer therapy” (Auckland Uniservices Limited, priority 2004, dated 2010):
Structures can show the parent of a compound that is named as a salt.

Tests used:
[1] = test system: SKOV3: human ovarian carcinoma cell line; assay: Proliferation IC50 assay, oxic/hypoxic, SKOV3; format: cell-based; details: for IC50: Homo sapiens, SK-OV-3, 4 h exposure under aerobic conditions; for HCR (hypoxic cytotoxicity ratio) SKOV3: IC50(aerobic)/IC10(hypoxic); for HCR SKOV3: IC50(aerobic)/IC50(hypoxic)
[2] = test system: HT29: human colon cancer cell line; assay: Proliferation IC50 assay, oxic/hypoxic, HT29; format: cell-based; details: for IC50: Homo sapiens, HT-29, 4 h exposure under aerobic conditions; for HCR (hypoxic cytotoxicity ratio) HT29: IC50(aerobic)/IC10(hypoxic); for HCR HT29: IC50(aerobic)/IC50(hypoxic)

In the case of COc1cc2cc(C(=O)N3CC(CCl)c4c3cc([N+](=O)[O-])c3ccc(S(C)(=O)=O)cc43)[nH]c2c(OC)c1OC (stereo not drawn) [Compound 46, 1-(Chloromethyl)-8-(methylsulfonyl)-5-nitro-3-(5,6,7-trimethoxyindol-2-carbonyl)-1,2-dihydro-3H-benzo[e]indole], the IC50 ([1]; Table 3) is reported as 11 µM, the “HCR (hypoxic cytotoxicity ratio) SKOV3” value ([1]; Table 3) is reported as 4.2 and the IC50 ([2]; Table 3) is reported as 14000 nM. For the same molecule, the “HCR (hypoxic cytotoxicity ratio) HT29” value ([2]; Table 3) was 2.5 and the melting point was 265 °C.

With COc1cc2cc(C(=O)N3CC(CCl)c4c3cc(N)c3cc(S(N)(=O)=O)ccc43)[nH]c2c(OC)c1OC (stereo not drawn) [Compound 59, 5-Amino-1-(chloromethyl)-3-(5,6,7-trimethoxyindol-2-carbonyl)-1,2-dihydro-3H-benzo[e]indole-7-sulfonamide] the IC50 ([1]; Table 4) was 0.041 µM, the “HCR SKOV3” value ([1]; Table 4) was 1.3 and the IC50 ([2]; Table 4) was 86 nM. The “HCR HT29” value ([2]; Table 4) was 1.1 and the melting point was 240 to 245 °C (dec.).

In the case of CN(C)CCOc1ccc2[nH]c(C(=O)N3CC(S(=O)(=O)NCCO)c4c3cc(N)c3c(CCl)cccc43)cc2c1 (stereo not drawn) [Compound 62, 5-Amino-6-(chloromethyl)-3-{5-[2-(dimethylamino)ethoxy]indol-2-carbonyl}-N-(2-hydroxyethyl)-1,2-dihydro-3H-benzo[e]indole-1-sulfonamide], the IC50 ([1]; Table 4) is reported as 0.034 µM, the “HCR SKOV3” value ([1]; Table 4) is reported as 1.1 and the IC50 ([2]; Table 4) is reported as 94 nM. The “HCR HT29” value ([2]; Table 4) was 1.0 and the melting point was 225 to 230 °C.

With COc1ccc(/C=C/C(=O)N2CC(CCl)c3c2cc([N+](=O)[O-])c2cc(S(N)(=O)=O)ccc32)cc1O (stereo not drawn) [Compound 27, 1-(Chloromethyl)-3-[(2E)-3-(3-hydroxy-4-methoxyphenyl)-2-propenoyl]-5-nitro-1,2-dihydro-3H-benzo[e]indole-7-sulfonamide] the IC50 ([1]; Table 3) was 13 µM, the “HCR (hypoxic cytotoxicity ratio) SKOV3” value ([1]; Table 3) was 31 and the IC50 ([2]; Table 3) was 2400 nM. For the same molecule, the “HCR (hypoxic cytotoxicity ratio) HT29” value ([2]; Table 3) was 1.8 and the melting point was 220 to 225 °C.

In the case of COc1cc2cc(C(=O)N3CC(CCl)c4c3cc([N+](=O)[O-])c3cc(C(=O)NCCO)ccc43)[nH]c2c(OC)c1OC (stereo not drawn) [Compound 17, 1-(Chloromethyl)-N-(2-hydroxyethyl)-5-nitro-3-(5,6,7-trimethoxyindol-2-carbonyl)-1,2-dihydro-3H-benzo[e]-indole-7-carboxamide], the IC50 ([2]; Table 3) is reported as 5700 nM, the “HCR (hypoxic cytotoxicity ratio) HT29” value ([2]; Table 3) is reported as 1.7 and the melting point is reported as 244 to 245 °C.

With COc1cc2cc(C(=O)N3CC(CCl)c4c3cc([N+](=O)[O-])c3cc(S(=O)(=O)NCCO)ccc43)[nH]c2c(OC)c1OC (stereo not drawn) [Compound 33, 1-(Chloromethyl)-N-(2-hydroxyethyl)-5-nitro-3-(5,6,7-trimethoxyindol-2-carbonyl)-1,2-dihydro-3H-benzo[e]indole-7-sulfonamide] the IC50 ([1]; Table 3) was 13 µM, the “HCR (hypoxic cytotoxicity ratio) SKOV3” value ([1]; Table 3) was 5.8 and the melting point was 257 to 258 °C.

Work on CN(C)CCOc1ccc2[nH]c(C(=O)N3CC(CCl)c4c3cc([N+](=O)[O-])c3cccc([N+](=O)[O-])c43)cc2c1 (stereo not drawn) (as salt: HCl) [Compound 52, 1-(Chloromethyl)-3-{5-[2-(dimethylamino)ethoxy]indol-2-carbonyl}-5,9-dinitro-1,2-dihydro-3H-benzo[e]indole] yielded a melting point of 187 to 191 °C.

For CN(C)CCOc1ccc2[nH]c(C(=O)N3CC(CCl)c4c3cc([N+](=O)[O-])c3cc(C#N)ccc43)cc2c1 (stereo not drawn) (as salt: HCl) [Compound 22, 1-(Chloromethyl)-3-{5-[2-(dimethylamino)ethoxy]indol-2-carbonyl}-5-nitro-1,2-dihydro-3H-benzo[e]indole-7-carbonitrile], the melting point was over 300 °C.

CN(C)CCOc1ccc2[nH]c(C(=O)N3CC(CCl)c4c3cc([N+](=O)[O-])c3ccc(S(C)(=O)=O)cc43)cc2c1 (stereo not drawn) (as salt: HCl) [Compound 47, 1-(Chloromethyl)-3-{5-[2-(dimethylamino)ethoxy]indol-2-carbonyl}-8-(methylsulfonyl)-5-nitro-1,2-dihydro-3H-benzo[e]indole] showed a melting point of over 300 °C.

In the case of CCC(=O)NS(=O)(=O)c1ccc2c3c(cc([N+](=O)[O-])c2c1)N(C(=O)c1cc2cc(OCCN(C)C)ccc2[nH]1)CC3CCl (stereo not drawn), the melting point is reported as 221 to 225 °C.
